# Reference: US20140235848A1, “METHOD FOR MAKING A PRECURSOR OF L-FUCOSE FROM D-GLUCOSE” (Glycom A/S, priority 2011, published 2014)
# Assay: Partition studies between organic solvent and water
# Assay type: physicochemical
# Settings: for affinity to organic solvents as compared to aqueous media / solubility in organic versus aqueous solvents: conclusion in words from the partition studies
# Procedure: 1,2-O-Cyclohexylidene-6-deoxy-β-L-talofuranose (197 mg) was partitioned between water (10 mL) and methylene chloride (10 mL), layers separated and the residual amount of solutions in the separatory funnel were partitioned with extra amount of water (5 mL) and methylene chloride (5 mL). The combined organic phases were evaporated and dried in vacuo (50° C., <1 mbar, 1 hour) to give 140 mg of the title compound. The aqueous solution gave 53 mg after lyophilisation and drying in vacuo (50° C., <1 mbar, 2 hrs). Using the same procedure, partition between ethyl acetate and water provided 127 mg of the title compound from ethyl acetate phase and 70 mg from the aqueous phase.
# Analogously, 1,2-O-isopropylidene-6-deoxy-β-L-talofuranose (150 mg) was partitioned between methylene chloride (24 mg) and aqueous phase (126 mg). Partition between ethyl acetate and water furnished 7 mg and 143 mg of the title compound, respectively.
SMILES,affinity to organic solvents as compared to aqueous media,solubility in organic versus aqueous solvents,logP (solvent system CH2Cl2-water),logP (solvent system ethyl acetate-water)
"C[C@H](O)[C@H]1O[C@@H]2OC(C)(C)O[C@@H]2[C@@H]1O [1,2-O-isopropylidene-6-deoxy-β-L-talofuranose]",higher affinity to aqueous medium,highly soluble in aqueous solutions and almost insoluble in organic solvents,0.72,0.79
"C[C@H](O)[C@H]1O[C@@H]2OC3(CCCCC3)O[C@@H]2[C@@H]1O [6-deoxy-1,2-O-cyclohexylidene-β-L-talofuranose]",higher affinity to organic solvents as compared to aqueous media,much higher solubility of compound 1G in organic solvents as compared to aqueous solvents,,
